Experimental data taken from PubChem BioAssay (NCI).
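Values below derive from 48-hour exposures of cells grown in 96-well plates, with endpoints linearly interpolated between the two concentrations bracketing the appropriate inhibition level. GI50: concentration for 50% inhibition of growth. TGI: total growth inhibition.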

Assays:
Assay in all cases: DTP human tumour cell line panel, 48 h
ACHN renal = tested on: ACHN renal
M14 melanoma = tested on: M14 melanoma
SNB-75 CNS = tested on: SNB-75 CNS
HCC-2998 colon = tested on: HCC-2998 colon
K-562 leukemia = tested on: K-562 leukemia
SN12C renal = tested on: SN12C renal
UACC-257 melanoma = tested on: UACC-257 melanoma
OVCAR-5 ovarian = tested on: OVCAR-5 ovarian
HCT-116 colon = tested on: HCT-116 colon
BT-549 breast = tested on: BT-549 breast
SK-MEL-5 melanoma = tested on: SK-MEL-5 melanoma
EKVX NSCLC = tested on: EKVX NSCLC
MOLT-4 leukemia = tested on: MOLT-4 leukemia
UACC-62 melanoma = tested on: UACC-62 melanoma
MALME-3M melanoma = tested on: MALME-3M melanoma
NCI-H23 lung = tested on: NCI-H23 lung
HOP-92 NSCLC = tested on: HOP-92 NSCLC
HCT-15 colon = tested on: HCT-15 colon
NCI-H460 lung = tested on: NCI-H460 lung
LOX IMVI melanoma = tested on: LOX IMVI melanoma
SK-MEL-28 melanoma = tested on: SK-MEL-28 melanoma
SW-620 colon = tested on: SW-620 colon
OVCAR-8 ovarian = tested on: OVCAR-8 ovarian
TK-10 renal = tested on: TK-10 renal
HL-60(TB) leukemia = tested on: HL-60(TB) leukemia
786-0 renal = tested on: 786-0 renal
RPMI-8226 leukemia = tested on: RPMI-8226 leukemia
UO-31 renal = tested on: UO-31 renal
RXF 393 renal = tested on: RXF 393 renal
OVCAR-3 ovarian = tested on: OVCAR-3 ovarian
U251 CNS = tested on: U251 CNS
COLO 205 colon = tested on: COLO 205 colon
HT29 colon = tested on: HT29 colon
HOP-62 NSCLC = tested on: HOP-62 NSCLC
PC-3 prostate = tested on: PC-3 prostate
NCI/ADR-RES ovarian = tested on: NCI/ADR-RES ovarian
CAKI-1 renal = tested on: CAKI-1 renal
MCF7 breast = tested on: MCF7 breast
SF-268 CNS = tested on: SF-268 CNS
KM12 colon = tested on: KM12 colon
IGROV1 ovarian = tested on: IGROV1 ovarian
NCI-H522 lung = tested on: NCI-H522 lung
NCI-H226 lung = tested on: NCI-H226 lung
A549 NSCLC = tested on: A549 NSCLC
SR leukemia = tested on: SR leukemia
HS 578T breast = tested on: HS 578T breast
SK-MEL-2 melanoma = tested on: SK-MEL-2 melanoma
SF-539 CNS = tested on: SF-539 CNS
SNB-19 CNS = tested on: SNB-19 CNS
A498 renal = tested on: A498 renal
CCRF-CEM leukemia = tested on: CCRF-CEM leukemia
SF-295 CNS = tested on: SF-295 CNS
OVCAR-4 ovarian = tested on: OVCAR-4 ovarian
MDA-MB-435 = tested on: MDA-MB-435
MDA-MB-231 breast = tested on: MDA-MB-231 breast
DU-145 prostate = tested on: DU-145 prostate

**Q.** Which results are given for CN(C)CCCNc1nc2ccccc2c2c(=O)c3cc(F)ccc3sc12?
**A.** GI50 (ACHN renal): 1560 nM; TGI (ACHN renal): 2920 nM; GI50 (M14 melanoma): 1980 nM; TGI (M14 melanoma): 3750 nM; GI50 (SNB-75 CNS): 1330 nM; TGI (SNB-75 CNS): 2750 nM; GI50 (HCC-2998 colon): 1670 nM; TGI (HCC-2998 colon): 3240 nM; GI50 (K-562 leukemia): 2330 nM; TGI (K-562 leukemia): 8350 nM; GI50 (SN12C renal): 1610 nM; TGI (SN12C renal): 3150 nM; GI50 (UACC-257 melanoma): 2080 nM; TGI (UACC-257 melanoma): 4210 nM; GI50 (OVCAR-5 ovarian): 1570 nM; TGI (OVCAR-5 ovarian): 2950 nM; GI50 (HCT-116 colon): 1510 nM; TGI (HCT-116 colon): 3190 nM; GI50 (BT-549 breast): 10100 nM; TGI (BT-549 breast): 22900 nM; GI50 (SK-MEL-5 melanoma): 1700 nM; TGI (SK-MEL-5 melanoma): 3120 nM; GI50 (EKVX NSCLC): 1590 nM; TGI (EKVX NSCLC): 3240 nM; GI50 (MOLT-4 leukemia): 2130 nM; TGI (MOLT-4 leukemia): 4480 nM; GI50 (UACC-62 melanoma): 1750 nM; TGI (UACC-62 melanoma): 3240 nM; GI50 (MALME-3M melanoma): 1620 nM; TGI (MALME-3M melanoma): 3050 nM; GI50 (NCI-H23 lung): 1670 nM; TGI (NCI-H23 lung): 3170 nM; GI50 (HOP-92 NSCLC): 1170 nM; TGI (HOP-92 NSCLC): 3960 nM; GI50 (HCT-15 colon): 1650 nM; TGI (HCT-15 colon): 3200 nM; GI50 (NCI-H460 lung): 1760 nM; TGI (NCI-H460 lung): 3440 nM; GI50 (LOX IMVI melanoma): 1630 nM; TGI (LOX IMVI melanoma): 3050 nM; GI50 (SK-MEL-28 melanoma): 1760 nM; TGI (SK-MEL-28 melanoma): 3190 nM; GI50 (SW-620 colon): 1620 nM; TGI (SW-620 colon): 3180 nM; GI50 (OVCAR-8 ovarian): 2090 nM; TGI (OVCAR-8 ovarian): 4910 nM; GI50 (TK-10 renal): 1900 nM; TGI (TK-10 renal): 3670 nM; GI50 (HL-60(TB) leukemia): 2020 nM; TGI (HL-60(TB) leukemia): 4140 nM; GI50 (786-0 renal): 1470 nM; TGI (786-0 renal): 3020 nM; GI50 (RPMI-8226 leukemia): 2320 nM; TGI (RPMI-8226 leukemia): 5370 nM; GI50 (UO-31 renal): 1480 nM; TGI (UO-31 renal): 2830 nM; GI50 (RXF 393 renal): 1460 nM; TGI (RXF 393 renal): 2910 nM; GI50 (OVCAR-3 ovarian): 1670 nM; TGI (OVCAR-3 ovarian): 3170 nM; GI50 (U251 CNS): 1900 nM; TGI (U251 CNS): 4410 nM; GI50 (COLO 205 colon): 2120 nM; TGI (COLO 205 colon): 5030 nM; GI50 (HT29 colon): 1700 nM; TGI (HT29 colon): 3710 nM; GI50 (HOP-62 NSCLC): 1980 nM; TGI (HOP-62 NSCLC): 4200 nM; GI50 (PC-3 prostate): 1800 nM; TGI (PC-3 prostate): 3530 nM; GI50 (NCI/ADR-RES ovarian): 1620 nM; TGI (NCI/ADR-RES ovarian): 3180 nM; GI50 (CAKI-1 renal): 1580 nM; TGI (CAKI-1 renal): 2940 nM; GI50 (MCF7 breast): 1130 nM; TGI (MCF7 breast): 2660 nM; GI50 (SF-268 CNS): 1530 nM; TGI (SF-268 CNS): 3160 nM; GI50 (KM12 colon): 1740 nM; TGI (KM12 colon): 3300 nM; GI50 (IGROV1 ovarian): 1470 nM; TGI (IGROV1 ovarian): 2940 nM; GI50 (NCI-H522 lung): 1890 nM; TGI (NCI-H522 lung): 3980 nM; GI50 (NCI-H226 lung): 1710 nM; TGI (NCI-H226 lung): 3340 nM; GI50 (A549 NSCLC): 2040 nM; TGI (A549 NSCLC): 4810 nM; GI50 (SR leukemia): 4010 nM; TGI (SR leukemia): > 100000 nM; GI50 (HS 578T breast): 1660 nM; TGI (HS 578T breast): 3560 nM; GI50 (SK-MEL-2 melanoma): 2000 nM; TGI (SK-MEL-2 melanoma): 4070 nM; GI50 (SF-539 CNS): 1610 nM; TGI (SF-539 CNS): 3010 nM; GI50 (SNB-19 CNS): 1650 nM; TGI (SNB-19 CNS): 3080 nM; GI50 (A498 renal): 1810 nM; TGI (A498 renal): 3680 nM; GI50 (CCRF-CEM leukemia): 2230 nM; TGI (CCRF-CEM leukemia): 5310 nM; GI50 (SF-295 CNS): 1780 nM; TGI (SF-295 CNS): 3270 nM; GI50 (OVCAR-4 ovarian): 2000 nM; TGI (OVCAR-4 ovarian): 4350 nM; GI50 (MDA-MB-435): 1740 nM; TGI (MDA-MB-435): 3360 nM; GI50 (MDA-MB-231 breast): 1370 nM; TGI (MDA-MB-231 breast): 2750 nM; GI50 (DU-145 prostate): 1680 nM; TGI (DU-145 prostate): 3160 nM
